ChEMBL document CHEMBL5523739, “NN1213 - A Potent, Long-Acting, and Selective Analog of Human Amylin” (J Med Chem, 2024)
In brackets after ≈: the same amount, converted by molar mass. Activity calls are given as the source filed them. No cut-off for these calls is given here.

Assays:
[1] = test system: Rattus norvegicus; assay: Appetite suppressing activity in rat assessed as reduction in food intake at 100 nmol/kg, sc measured for 48 hrs relative to control; type: functional; parameters: scale not given: the % may be the effect or the level left
[2] = Solubility of compound at pH 8 incubated overnight by UPLC analysis; type: physicochemical; conditions: buffer
[3] = Solubility of compound at pH 4 incubated overnight by UPLC analysis; type: physicochemical; conditions: buffer
[4] = target: T1, Amylin receptor AMY3; CALCR/RAMP3 (Rattus norvegicus, UniProt P32214+Q9JJ73); assay: Displacement of 125I-rat amylin from rat AMY3R complex of CTR/RAMP3 expressed in Baby hamster kidney cell membrane incubated for 120 mins by SPA method; type: cell membranes
T1 sequence (P32214 whole entry): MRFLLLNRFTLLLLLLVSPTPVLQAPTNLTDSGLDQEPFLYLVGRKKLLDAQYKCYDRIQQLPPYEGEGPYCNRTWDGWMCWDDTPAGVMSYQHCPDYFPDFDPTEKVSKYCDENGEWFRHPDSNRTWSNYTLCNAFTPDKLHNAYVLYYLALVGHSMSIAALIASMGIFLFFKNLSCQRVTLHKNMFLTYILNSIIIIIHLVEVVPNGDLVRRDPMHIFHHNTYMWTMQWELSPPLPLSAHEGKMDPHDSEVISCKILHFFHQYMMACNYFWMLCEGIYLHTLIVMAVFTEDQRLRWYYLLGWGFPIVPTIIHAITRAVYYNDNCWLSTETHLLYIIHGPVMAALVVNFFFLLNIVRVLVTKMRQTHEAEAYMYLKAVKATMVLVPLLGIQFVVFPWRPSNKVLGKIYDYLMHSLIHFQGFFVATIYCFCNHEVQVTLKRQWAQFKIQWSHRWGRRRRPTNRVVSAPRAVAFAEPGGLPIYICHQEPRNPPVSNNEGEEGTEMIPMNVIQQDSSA
T1 sequence (Q9JJ73 whole entry): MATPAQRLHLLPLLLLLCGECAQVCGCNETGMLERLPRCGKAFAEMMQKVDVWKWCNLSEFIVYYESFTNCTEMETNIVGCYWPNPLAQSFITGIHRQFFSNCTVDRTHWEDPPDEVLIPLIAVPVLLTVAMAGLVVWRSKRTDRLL

[5] = […] bioavailability in rat at 2.5 nmol/kg, sc; type: ADME, organism-based; conditions: in vivo
[6] = target: Calcitonin-gene-related peptide receptor, CALCRL/RAMP1 (Homo sapiens, UniProt O60894+Q16602); assay: Agonist activity at human CGRPR complex of CRLR/RAMP1 transduced in human HeLa cells by cAMP assay; type: functional, cell-based
[7] = Terminal half life in rat at 2.5 nmol/kg, sc; type: ADME; conditions: in vivo, read-out: beta t1/2 (converted)
[8] = target: T2, Amylin receptor AMY3; CALCR/RAMP3 (Homo sapiens, UniProt O60896+P30988); assay: Agonist activity at human AMY3R complex of CTR/RAMP3 expressed in Baby hamster kidney cells incubated for 3 hrs followed by medium replacement without compound measured after 30 mins by luciferase reporter assay; type: functional, cell-based, Baby hamster kidney cell
T2 sequence (P30988 whole entry): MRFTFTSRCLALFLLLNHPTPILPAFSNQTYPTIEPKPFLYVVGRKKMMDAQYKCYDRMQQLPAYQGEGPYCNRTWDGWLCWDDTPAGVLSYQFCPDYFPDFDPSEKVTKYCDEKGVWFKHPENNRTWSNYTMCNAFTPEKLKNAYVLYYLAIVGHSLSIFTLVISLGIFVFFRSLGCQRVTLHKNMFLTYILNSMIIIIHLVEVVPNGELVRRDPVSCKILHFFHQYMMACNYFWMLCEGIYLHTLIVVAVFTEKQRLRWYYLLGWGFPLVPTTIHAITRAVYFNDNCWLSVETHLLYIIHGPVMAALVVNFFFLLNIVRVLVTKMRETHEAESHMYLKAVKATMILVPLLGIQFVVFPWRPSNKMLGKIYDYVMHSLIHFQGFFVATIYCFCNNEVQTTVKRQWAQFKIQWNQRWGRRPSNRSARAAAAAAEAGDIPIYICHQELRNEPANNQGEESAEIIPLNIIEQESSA
T2 sequence (O60896 whole entry): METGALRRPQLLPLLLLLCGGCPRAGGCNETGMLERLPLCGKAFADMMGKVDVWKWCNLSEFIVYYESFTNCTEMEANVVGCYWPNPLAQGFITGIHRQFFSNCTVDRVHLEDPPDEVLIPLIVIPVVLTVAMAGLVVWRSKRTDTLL

[9] = Toxicity in dog assessed as sign of discomfort at 3 to 300 nmol/kg, sc; parameters: species or system Canis lupus familiaris; conditions: in vivo, dose 3-300 nmol/kg
[10] = test system: Rattus norvegicus; assay: Appetite suppressing activity in rat assessed as reduction in food intake at 3 nmol/kg, sc measured after 24 hrs relative to control; type: functional; parameters: scale not given: the % may be the effect or the level left
[11] = target: Amylin receptor AMY2; CALCR/RAMP2 (Homo sapiens, UniProt O60895+P30988); assay: Agonist activity at human AMY2R complex of CTR/RAMP2 transduced in human HeLa cells by cAMP assay; type: functional, cell-based
[12] = test system: Rattus norvegicus; assay: Appetite suppressing activity in HFD-fed DIO rat model assessed as body weight lost at 0.7 nmol/kg, sc qd measured after 21 days; type: functional; conditions: time 21 day
[13] = target: T3, Calcitonin receptor (Homo sapiens, UniProt P30988); assay: Displacement of 125I-Calcitonin from human CTR expressed in Baby hamster kidney cell membrane incubated for 120 mins by SPA method; type: cell membranes
T3 sequence (P30988 whole entry): T2 sequence (P30988 whole entry)

[14] = test system: Rattus norvegicus; assay: Effect on lean mass of HFD-fed DIO rat model at 0.7 to 22 nmol/kg, sc qd measured after 21 days; type: functional, organism-based; conditions: dose 0.7-22 nmol/kg, time 21.0 day
[15] = test system: Rattus norvegicus; assay: Appetite suppressing activity in HFD-fed DIO rat model assessed as reduction in fat mass administered subcutaneously once daily measured after 21 days; type: functional, organism-based; conditions: dose 0.7-22 nmol/kg, route sc, time 21.0 day
[16] = target: T4, Calcitonin receptor (Rattus norvegicus, UniProt P32214); assay: Displacement of 125I-Calcitonin from rat CTR expressed in Baby hamster kidney cell membrane incubated for 120 mins by SPA method; type: cell membranes
T4 sequence (P32214 whole entry): T1 sequence (P32214 whole entry)

[17] = target: T3, Calcitonin receptor; assay: Agonist activity at human CTR expressed in Baby hamster kidney cells incubated for 3 hrs followed by medium replacement without compound measured after 30 mins by luciferase reporter assay; type: functional, cell-based, Baby hamster kidney cell
[18] = Solubility of compound at pH 3 incubated overnight by UPLC analysis; type: physicochemical; conditions: buffer
[19] = Solubility of compound at pH 7.5 incubated overnight by UPLC analysis; type: physicochemical; conditions: buffer
[20] = test system: Rattus norvegicus; assay: Appetite suppressing activity in HFD-fed DIO rat model assessed as reduction in food intake at 0.7 nmol/kg, sc qd measured for 21 days relative to control; type: functional; parameters: scale not given: the % may be the effect or the level left; conditions: time 21 day
[21] = Stability against amyloid fibril formation at pH 7.5 assessed as lag time at 1 uM measured after 45 hrs by ThT assay; type: physicochemical; conditions: pH 7.5, 45 h
[22] = test system: Rattus norvegicus; assay: Appetite suppressing activity in rat assessed as reduction in food intake at 3 nmol/kg, sc measured after 48 hrs relative to control; type: functional; parameters: scale not given: the % may be the effect or the level left
[23] = test system: Rattus norvegicus; assay: Appetite suppressing activity in HFD-fed DIO rat model assessed as reduction in food intake at 0.7 to 22 nmol/kg, sc qd measured for 1 to 2 hrs; type: functional, organism-based; conditions: dose 0.7-22 nmol/kg, time 1-2 hrs
[24] = Stability against amyloid fibril formation at pH 7.5 assessed as compound recovery at 1 uM measured after 45 hrs by ThT assay; type: physicochemical; conditions: pH 7.5, 45 h

Sequence of Amylin receptor AMY2; CALCR/RAMP2 (O60895 whole entry, one chain of several): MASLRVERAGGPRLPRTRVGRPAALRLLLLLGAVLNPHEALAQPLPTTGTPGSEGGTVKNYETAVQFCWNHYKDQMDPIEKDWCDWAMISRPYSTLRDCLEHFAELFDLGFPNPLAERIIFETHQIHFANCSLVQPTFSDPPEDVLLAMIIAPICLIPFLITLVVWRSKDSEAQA
Sequence of Calcitonin-gene-related peptide receptor, CALCRL/RAMP1 (O60894 whole entry): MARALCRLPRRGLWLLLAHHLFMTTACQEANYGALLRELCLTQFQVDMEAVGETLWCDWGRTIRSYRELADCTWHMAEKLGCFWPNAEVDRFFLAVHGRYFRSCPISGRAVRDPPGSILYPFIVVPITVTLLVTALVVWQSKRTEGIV
Sequence of Calcitonin-gene-related peptide receptor, CALCRL/RAMP1 (Q16602 whole entry): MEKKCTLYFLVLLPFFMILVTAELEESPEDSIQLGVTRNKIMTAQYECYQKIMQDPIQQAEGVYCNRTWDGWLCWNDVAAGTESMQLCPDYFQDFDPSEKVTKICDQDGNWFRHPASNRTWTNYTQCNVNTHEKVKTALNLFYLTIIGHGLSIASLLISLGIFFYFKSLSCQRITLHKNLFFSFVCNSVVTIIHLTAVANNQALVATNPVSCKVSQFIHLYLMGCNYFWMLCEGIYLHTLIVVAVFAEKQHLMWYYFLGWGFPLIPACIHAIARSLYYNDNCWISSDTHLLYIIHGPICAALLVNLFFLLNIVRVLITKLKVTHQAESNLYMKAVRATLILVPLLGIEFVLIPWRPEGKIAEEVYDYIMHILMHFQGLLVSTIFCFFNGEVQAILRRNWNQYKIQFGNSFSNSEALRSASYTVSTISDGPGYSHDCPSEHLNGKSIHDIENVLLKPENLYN

Which Activity [1] does the source give for `CC[C@H](C)[C@H](NC(=O)[C@H](C)NC(=O)CNC(=O)[C@H](Cc1ccccc1)NC(=O)[C@H](CC(N)=O)NC(=O)[C@@H]1CCCN1C(=O)[C@H](CO)NC(=O)[C@H](CO)NC(=O)[C@H](Cc1c[nH]cn1)NC(=O)[C@H](CCCNC(=N)N)NC(=O)[C@H](CC(C)C)NC(=O)[C@H](Cc1ccccc1)NC(=O)[C@H](CC(=O)O)NC(=O)[C@H](C)NC(=O)[C@H](CC(C)C)NC(=O)[C@H](CCCNC(=N)N)NC(=O)[C@H](CCC(N)=O)NC(=O)[C@@H](NC(=O)[C@H](C)NC(=O)[C@@H]1CSSC[C@H](NC(=O)[C@@H](N)CCCCN)C(=O)N[C@@H](CC(N)=O)C(=O)N[C@@H]([C@@H](C)O)C(=O)N[C@@H](C)C(=O)N[C@@H]([C@@H](C)O)C(=O)N1)[C@@H](C)O)C(=O)N1CCC[C@H]1C(=O)N[C@@H](CO)C(=O)N[C@@H](CO)C(=O)N[C@H](C(=O)N[C@@H](CC(N)=O)C(=O)N[C@H](C(=O)NCC(=O)N[C@@H](CO)C(=O)N[C@@H](CCCNC(=N)N)C(=O)N[C@H](C(=O)N[C@@H](Cc1ccc(O)cc1)C(N)=O)[C@@H](C)O)C(C)C)[C@@H](C)O` here?
Its Activity is 70%.

And the solubility [2]?
The solubility was 110 µM (≈ 437 µg/mL).

And the solubility [3]?
The solubility was at least 200 µM.

And the IC50 [4]?
Its IC50 is 0.29 nM.

And the bioavailability [5]?
Its bioavailability is about 40%.

What about the EC50 [6] of the same compound?
Its EC50 is 269 nM.

What about the half-life [7] of the same compound?
Its half-life is about 24 h.

What about the EC50 [8] of the same compound?
Its EC50 is 0.177 nM.

What about the Activity [9] of the same compound?
The Activity was “Non-Toxic”.

And the Activity [10]?
Its Activity is 25%.

What about the EC50 [11] of the same compound?
The EC50 was 0.182 nM.

What about the Activity [12] of the same compound?
The Activity was 32 g.

What about the IC50 [13] of the same compound?
The IC50 was 42 nM.

What about the Activity [14] of the same compound?
Its Activity is “inactive”.

What about the Activity [15] of the same compound?
Its Activity is “Dose-Dependent Effect”.

And the IC50 [16]?
The IC50 was 135 nM.

And the EC50 [17]?
Its EC50 is 5.21 nM.

And the solubility [18]?
Its solubility is at least 200 µM.

What about the solubility [19] of the same compound?
The solubility was 106 µM (≈ 421 µg/mL).

What about the Activity [20] of the same compound?
The Activity was 4.7%.

And the Time [21]?
The Time was 42 h.

What about the Activity [22] of the same compound?
Its Activity is 15%.

What about the Activity [23] of the same compound?
The Activity was “Active”.

And the Drug recovery [24]?
Its Drug recovery is 96%.
